Measurements as given in publication PMC9120017, “Inhibition mechanism of the chloride channel TMEM16A by the pore blocker 1PBC” (Nature Communications, 2022).
Read-outs that look alike come from different tables or passages of the source.

Molecular target: T1, mouse TMEM16A mutant R535A (Mus musculus, UniProt Q8BHY3, R535A)
T1 construct: expressed in transfected cells; host or cells: HEK293T
T1 sequence (Q8BHY3 1-960 R535A): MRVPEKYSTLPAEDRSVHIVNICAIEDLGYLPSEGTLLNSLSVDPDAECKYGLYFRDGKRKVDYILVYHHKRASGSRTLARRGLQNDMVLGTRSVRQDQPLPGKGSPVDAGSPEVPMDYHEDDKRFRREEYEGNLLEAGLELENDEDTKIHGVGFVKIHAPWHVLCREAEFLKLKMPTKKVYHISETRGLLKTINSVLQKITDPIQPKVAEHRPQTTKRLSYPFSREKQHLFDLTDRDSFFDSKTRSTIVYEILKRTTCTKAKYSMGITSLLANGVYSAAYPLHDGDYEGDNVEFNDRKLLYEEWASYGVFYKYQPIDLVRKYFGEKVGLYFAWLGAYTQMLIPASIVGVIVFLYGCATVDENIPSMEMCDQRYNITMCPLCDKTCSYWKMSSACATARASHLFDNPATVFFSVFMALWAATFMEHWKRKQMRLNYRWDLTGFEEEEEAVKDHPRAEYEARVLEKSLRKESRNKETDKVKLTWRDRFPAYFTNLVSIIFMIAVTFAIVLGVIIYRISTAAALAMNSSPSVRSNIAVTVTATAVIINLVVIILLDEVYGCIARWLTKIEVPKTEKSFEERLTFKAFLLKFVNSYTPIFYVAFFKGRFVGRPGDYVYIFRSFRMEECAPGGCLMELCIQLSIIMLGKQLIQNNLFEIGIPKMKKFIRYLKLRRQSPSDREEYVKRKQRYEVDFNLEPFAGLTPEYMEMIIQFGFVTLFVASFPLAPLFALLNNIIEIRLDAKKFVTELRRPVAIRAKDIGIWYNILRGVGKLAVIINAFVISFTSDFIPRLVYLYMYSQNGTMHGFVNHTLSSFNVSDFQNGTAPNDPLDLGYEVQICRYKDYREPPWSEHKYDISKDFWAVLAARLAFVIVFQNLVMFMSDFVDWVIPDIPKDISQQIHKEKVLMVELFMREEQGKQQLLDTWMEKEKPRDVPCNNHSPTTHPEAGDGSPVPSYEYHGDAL
Experiment: Inside-out patch recording of 1PBC block, mutant R535A
Type: cell-based
Details: for remaining activity at 30 µM: 1PBC 30; for remaining activity at 30 µM / remaining activity at 100 µM: read-out: fraction of unblocked current; for remaining activity at 100 µM: 1PBC 100
Description: HEK293T cells (ATCC CRL-1573) were maintained in Dulbecco’s modified Eagle’s medium (DMEM; Sigma-Aldrich) supplemented with 10 U ml^−1 penicillin, 0.1 mg ml^−1 streptomycin (Sigma-Aldrich), 2 mM L-glutamine (Sigma-Aldrich), and 10% FBS (Sigma-Aldrich) in a humidified atmosphere containing 5% CO2 at 37 °C. HEK293S GnTI^− cells (ATCC CRL-3022) were maintained in HyClone HyCell TransFx-H medium (GE Healthcare) supplemented with 10 U ml^−1 penicillin, 0.1 mg ml^−1 streptomycin, 4 mM L-glutamine, 0.15% poloxamer 188 (Sigma-Aldrich), and 1% FBS in an atmosphere containing 5% CO2 at 185 rpm at 37 °C. The ac splice variant of mouse TMEM16A (UniProt ID: Q8BHY3), mouse TMEM16B (UniProt ID: Q8CFW1), or mouse TMEM16F (UniProt ID: Q6P9J9) bearing a 3C cleavage site, a Venus YFP, a Myc tag, and a Streptavidin-binding peptide (SBP) downstream of the open reading frame in a modified pcDNA3.1 vector (Invitrogen) were used as described previously[21],[31]. Mutations were introduced using a modified QuikChange method[58] and were verified by sequencing.
HEK293T cells were transfected with 3–4 μg DNA per 6 cm Petri dish using the calcium phosphate co-precipitation method and were used within 24–96 h after transfection. Recordings were performed on inside-out patches excised from HEK293T cells expressing the construct of interest. Patch pipettes were pulled from borosilicate glass capillaries (O.D. 1.5 mm, I.D. 0.86 mm, Sutter Instrument) and were fire-polished with a microforge (Narishige) before use. Pipette resistance was typically 3–8 MΩ when filled with the recording solutions detailed below. Seal resistance was typically 4 GΩ or higher. Voltage-clamp recordings were made using Axopatch 200B, Digidata 1550, and Clampex 10.7 (Molecular Devices). Analog signals were filtered with the in-built 4-pole Bessel filter at 10 kHz and were digitized at 20 kHz. Solution exchange was achieved using a gravity-fed system through a theta glass pipette mounted on an ultra-fast piezo-driven stepper (Siskiyou). […] All recordings were performed at 20 °C.
A symmetrical ionic condition was used throughout. Stock solution with Ca^2+-EGTA contained 150 mM NaCl, 5.99 mM Ca(OH)2, 5 mM EGTA, and 10 mM HEPES at pH 7.40. Stock solution with EGTA contained 150 mM NaCl, 5 mM EGTA, and 10 mM HEPES at pH 7.40. Free Ca^2+ concentrations were adjusted by mixing the stock solutions at the required ratios calculated using the WEBMAXC program (http://web.stanford.edu/~cpatton/webmaxcS.htm). Patch pipettes were filled with the stock solution with Ca^2+-EGTA, which has a free Ca^2+ concentration of 1 mM. 1PBC (ChemBridge) stock was reconstituted in anhydrous DMSO (Sigma-Aldrich) at 100 mM and stored at −20 °C. Working solutions with 1PBC were prepared by serial dilution. Unless otherwise stated, experiments were performed at a saturating Ca^2+ concentration as shown in Supplementary Table 1 and the primary data were corrected for current rundown as described previously[21],[25].
Concentration-response relations, obtained from the ratio of the I-V plots before and after the application of the blocker, were fitted to the Hill equation,1 I/Imax=1/1+IC50/[blocker]^h where I/Imax is the normalized current responses, IC50 defines the concentration at which inhibition is at its half-maximum, and h is the Hill coefficient.

SMILES: N#Cc1c(C(F)(F)F)cc(O)n2c1nc1ccccc12 [1PBC]
- remaining activity at 30 µM (-60 mV): 41.8%
- remaining activity at 30 µM (-80 mV): 46.3%
- remaining activity at 30 µM (-100 mV): 50.1%
- remaining activity at 30 µM (-120 mV): 53.6%
- remaining activity at 30 µM (-140 mV): 55.9%
- remaining activity at 100 µM (0 mV): 10.2%
- remaining activity at 100 µM (20 mV): 8.03%
- remaining activity at 100 µM (40 mV): 6.85%
- remaining activity at 100 µM (60 mV): 5.65%
- remaining activity at 100 µM (80 mV): 5.26%
- remaining activity at 100 µM (100 mV): 4.79%
- remaining activity at 100 µM (120 mV): 4.05%
- remaining activity at 100 µM (140 mV): 4.54%
- remaining activity at 100 µM (-20 mV): 12.4%
- remaining activity at 100 µM (-40 mV): 14.1%
- remaining activity at 100 µM (-60 mV): 17.7%
- remaining activity at 100 µM (-80 mV): 21.3%
- remaining activity at 100 µM (-100 mV): 25.1%
- remaining activity at 100 µM (-120 mV): 29%
- remaining activity at 100 µM (-140 mV): 32.4%
- IC50 (20 mV, 2 µM Ca2+): 9.48 µM
- IC50 (40 mV, 2 µM Ca2+): 7.82 µM
- IC50 (60 mV, 2 µM Ca2+): 6.65 µM
- log-fold IC50 (change of mutant vs WT) (80 mV): 0.4043
- IC50 (80 mV, 2 µM Ca2+): 6.02 µM
- IC50 (100 mV, 2 µM Ca2+): 5.51 µM
- IC50 (120 mV, 2 µM Ca2+): 5.53 µM
- IC50 (140 mV, 2 µM Ca2+): 5.76 µM
- IC50 (-20 mV, 2 µM Ca2+): 14.9 µM
- IC50 (-40 mV, 2 µM Ca2+): 17.7 µM
- IC50 (-60 mV, 2 µM Ca2+): 21.4 µM
- IC50 (-80 mV, 2 µM Ca2+): 25.9 µM
- IC50 (-100 mV, 2 µM Ca2+): 30.1 µM
- IC50 (-120 mV, 2 µM Ca2+): 35.1 µM
- IC50 (-140 mV, 2 µM Ca2+): 38.8 µM
- IC50 (R535A, V 0 mV): 11.9 µM
- IC50 (R535A, V 20 mV): 9.48 µM
- IC50 (R535A, V 40 mV): 7.82 µM
- IC50 (R535A, V 60 mV): 6.65 µM
- IC50 (R535A, V 80 mV): 6.02 µM
- IC50 (R535A, V 100 mV): 5.51 µM
- IC50 (R535A, V 120 mV): 5.53 µM
- IC50 (R535A, V 140 mV): 5.76 µM
- IC50 (R535A, V -20 mV): 14.9 µM
- IC50 (R535A, V -40 mV): 17.7 µM
- IC50 (R535A, V -60 mV): 21.4 µM
- IC50 (R535A, V -80 mV): 25.9 µM
- IC50 (R535A, V -100 mV): 30.1 µM
- IC50 (R535A, V -120 mV): 35.1 µM
- IC50 (R535A, V -140 mV): 38.8 µM
